Calls of active or inactive are those of the source. No cut-off for these calls is given here.
Legend:
[1] = target: cGMP-inhibited 3',5'-cyclic phosphodiesterase 3A (Homo sapiens) (UniProt Q14432); experiment: Inhibition of PDE3A at 50 uM
[2] = target: Phosphodiesterase 3 (Homo sapiens) (UniProt Q14432+Q13370); experiment: Inhibition of PDE3 at 6.25 uM; format: protein assay
Homo sapiens = organism: Homo sapiens; experiment: Inhibition of PAR4AP induced platelet aggregation at 25 uM; format: functional

cGMP-inhibited 3',5'-cyclic phosphodiesterase 3A (Homo sapiens), sequence (Q14432 whole entry): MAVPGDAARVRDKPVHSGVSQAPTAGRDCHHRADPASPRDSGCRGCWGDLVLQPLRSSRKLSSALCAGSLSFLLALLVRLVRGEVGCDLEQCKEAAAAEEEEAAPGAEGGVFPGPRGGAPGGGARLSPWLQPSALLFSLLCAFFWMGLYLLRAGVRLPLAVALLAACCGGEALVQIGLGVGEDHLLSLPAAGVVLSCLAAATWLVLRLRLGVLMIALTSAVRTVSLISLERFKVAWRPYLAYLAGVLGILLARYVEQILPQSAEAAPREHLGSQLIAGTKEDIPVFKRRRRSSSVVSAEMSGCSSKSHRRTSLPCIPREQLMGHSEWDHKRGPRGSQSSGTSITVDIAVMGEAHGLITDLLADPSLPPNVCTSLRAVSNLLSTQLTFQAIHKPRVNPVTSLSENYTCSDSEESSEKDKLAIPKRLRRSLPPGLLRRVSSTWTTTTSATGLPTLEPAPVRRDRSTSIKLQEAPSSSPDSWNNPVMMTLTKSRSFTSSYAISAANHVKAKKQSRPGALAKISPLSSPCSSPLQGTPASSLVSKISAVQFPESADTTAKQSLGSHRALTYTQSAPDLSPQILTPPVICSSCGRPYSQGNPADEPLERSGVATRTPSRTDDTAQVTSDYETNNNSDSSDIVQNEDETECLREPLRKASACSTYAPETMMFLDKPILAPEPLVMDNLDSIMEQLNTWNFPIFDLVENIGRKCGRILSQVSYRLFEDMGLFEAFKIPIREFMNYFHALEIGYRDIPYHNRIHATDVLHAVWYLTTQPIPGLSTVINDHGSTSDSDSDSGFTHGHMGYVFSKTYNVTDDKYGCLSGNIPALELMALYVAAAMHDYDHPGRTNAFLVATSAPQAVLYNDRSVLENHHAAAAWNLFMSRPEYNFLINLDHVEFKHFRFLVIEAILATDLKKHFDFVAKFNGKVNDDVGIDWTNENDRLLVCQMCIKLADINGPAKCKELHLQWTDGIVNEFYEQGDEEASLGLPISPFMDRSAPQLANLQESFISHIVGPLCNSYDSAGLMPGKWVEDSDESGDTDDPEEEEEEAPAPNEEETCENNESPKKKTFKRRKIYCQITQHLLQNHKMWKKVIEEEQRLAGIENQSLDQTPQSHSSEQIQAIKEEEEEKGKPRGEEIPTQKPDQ

| Compound | inhibition [1] | inhibition [2] | Activity (Homo sapiens) |
| --- | --- | --- | --- |
| O=c1cc(N2CCOCC2)oc2cc(C#Cc3ccccc3)ccc12 | 70% | – | – |
| Cc1c(OCc2cccnc2)ccc2c(=O)cc(N3CCOCC3)oc12 | 68% | 46% | – |
| O=c1cc(N2CCOCC2)oc2cc(Oc3ccccc3)ccc12 | 43% | – | – |
| O=c1cc(N2CCOCC2)oc2cc(-c3ccccc3)ccc12 | 50% | – | – |
| Cc1c(OCc2ccccc2)ccc2c(=O)cc(N3CCOCC3)oc12 | 86% | – | Active |
| O=c1cc(N2CCOCC2)oc2cc(OCc3ccccc3)ccc12 | 49% | – | – |
| Cc1c(OCCN2CCN(C)CC2)ccc2c(=O)cc(N3CCOCC3)oc12 | -10% | – | – |
| Cc1c(-c2ccccc2)ccc2c(=O)cc(N3CCOCC3)oc12 | 83% | – | – |
| O=c1cc(N2CCOCC2)oc2cc(OCc3cccnc3)ccc12 | 19% | – | – |
| O=c1cc(N2CCOCC2)oc2c(OCc3cccnc3)cccc12 | 5% | – | – |
| O=c1cc(N2CCOCC2)oc2c(-c3ccccc3)cccc12 | 35% | – | – |
| COc1cc(-c2ccc(Cl)cc2)c2oc(N3CCOCC3)cc(=O)c2c1 | 63% | – | – |
| Cc1c(Oc2ccccc2)ccc2c(=O)cc(N3CCOCC3)oc12 | 78% | – | – |
| O=c1cc(N2CCOCC2)oc2c(OCc3ccccc3)cccc12 | -7% | – | – |
| O=c1cc(N2CCOCC2)oc2c(C#Cc3ccccc3)cccc12 | 60% | – | – |
| O=c1cc(N2CCOCC2)oc2c(CCc3ccccc3)cccc12 | 28% | – | – |
| Cc1c(C#Cc2ccccc2)ccc2c(=O)cc(N3CCOCC3)oc12 | 44% | – | – |

From ChEMBL document CHEMBL1138146, “Analysis of anti-PDE3 activity of 2-morpholinochromone derivatives reveals multiple mechanisms of anti-platelet activity” (Bioorg Med Chem Lett, 2006)
